Settings: human gut metagenome, 24 h, 2 µM
Further: call rule not given here.

Q: Which “Bacterial Biotransformation” value does the source give for Br.COc1ccc2c(c1)[C@]13CCCC[C@@H]1[C@H](C2)N(C)CC3.O [DEXTROMETHORPHAN HYDROBROMIDE] here?
A: Compound metabolized

Q: For CC(=O)Nc1ccc(OC(C)=O)cc1 [DIACETAMATE], which “Bacterial Biotransformation” value is on record?
A: Compound metabolized

Q: For CCN(CC)CCOC(=O)C1(C2CCCCC2)CCCCC1 [DICYCLOMINE], which “Bacterial Biotransformation” value is on record?
A: Compound metabolized

Test: (§1) The drug is tested on Z-019 corresponding to rat gut metagenome with ENA study accession number: PRJEB37062 and ENA sample accession number: ERS12561818 for biotransformation under anaerobic condition. The drug concentrations were measured over 9 timepoints collected between 0 and 24 hours of incubation by liquid-chromatography-coupled mass spectrometry (LC–MS)
Settings: 2 µM

Q: For Br.COc1ccc2c(c1)[C@]13CCCC[C@@H]1[C@H](C2)N(C)CC3.O [DEXTROMETHORPHAN HYDROBROMIDE], which “Bacterial Biotransformation” value is on record?
A: Compound NOT metabolized

Q: Which “Bacterial Biotransformation” value does the source give for CC(=O)Nc1ccc(OC(C)=O)cc1 [DIACETAMATE] here?
A: Compound metabolized

Q: With CCN(CC)CCOC(=O)C1(C2CCCCC2)CCCCC1 [DICYCLOMINE] as the compound, how does the “Bacterial Biotransformation” value read?
A: Compound NOT metabolized

Test: as §1, with “on WLS-090” for “on Z-019”, “to human” for “to rat”, “number: ERS12561753” for “number: ERS12561818”
Settings: 2 µM

Q: With Br.COc1ccc2c(c1)[C@]13CCCC[C@@H]1[C@H](C2)N(C)CC3.O [DEXTROMETHORPHAN HYDROBROMIDE] as the compound, how does the “Bacterial Biotransformation” value read?
A: Compound metabolized

Q: With CC(=O)Nc1ccc(OC(C)=O)cc1 [DIACETAMATE] as the compound, how does the “Bacterial Biotransformation” value read?
A: Compound metabolized

Q: With CCN(CC)CCOC(=O)C1(C2CCCCC2)CCCCC1 [DICYCLOMINE] as the compound, how does the “Bacterial Biotransformation” value read?
A: Compound metabolized

Test: as §1, with “on WLS-086” for “on Z-019”, “to human” for “to rat”, “number: ERS12561752” for “number: ERS12561818”
Settings: 2 µM

Q: For Br.COc1ccc2c(c1)[C@]13CCCC[C@@H]1[C@H](C2)N(C)CC3.O [DEXTROMETHORPHAN HYDROBROMIDE], which “Bacterial Biotransformation” value is on record?
A: Compound metabolized

Q: Which “Bacterial Biotransformation” value does the source give for CC(=O)Nc1ccc(OC(C)=O)cc1 [DIACETAMATE] here?
A: Compound metabolized

Q: For CCN(CC)CCOC(=O)C1(C2CCCCC2)CCCCC1 [DICYCLOMINE], which “Bacterial Biotransformation” value is on record?
A: Compound metabolized

Test: as §1, with “on Z-018” for “on Z-019”, “to pig” for “to rat”, “number: ERS12561817” for “number: ERS12561818”
Settings: 2 µM

Q: With Br.COc1ccc2c(c1)[C@]13CCCC[C@@H]1[C@H](C2)N(C)CC3.O [DEXTROMETHORPHAN HYDROBROMIDE] as the compound, how does the “Bacterial Biotransformation” value read?
A: Compound metabolized

Q: For CC(=O)Nc1ccc(OC(C)=O)cc1 [DIACETAMATE], which “Bacterial Biotransformation” value is on record?
A: Compound metabolized

Q: For CCN(CC)CCOC(=O)C1(C2CCCCC2)CCCCC1 [DICYCLOMINE], which “Bacterial Biotransformation” value is on record?
A: Compound NOT metabolized

Test: as §1, with “on WLS-027” for “on Z-019”, “to human” for “to rat”, “number: ERS12561744” for “number: ERS12561818”
Settings: 2 µM

Q: For Br.COc1ccc2c(c1)[C@]13CCCC[C@@H]1[C@H](C2)N(C)CC3.O [DEXTROMETHORPHAN HYDROBROMIDE], which “Bacterial Biotransformation” value is on record?
A: Compound metabolized

Q: Which “Bacterial Biotransformation” value does the source give for CC(=O)Nc1ccc(OC(C)=O)cc1 [DIACETAMATE] here?
A: Compound metabolized

Q: With CCN(CC)CCOC(=O)C1(C2CCCCC2)CCCCC1 [DICYCLOMINE] as the compound, how does the “Bacterial Biotransformation” value read?
A: Compound metabolized

Test: as §1, with “on WLS-170” for “on Z-019”, “to human” for “to rat”, “number: ERS12561762” for “number: ERS12561818”
Settings: 2 µM

Q: Which “Bacterial Biotransformation” value does the source give for Br.COc1ccc2c(c1)[C@]13CCCC[C@@H]1[C@H](C2)N(C)CC3.O [DEXTROMETHORPHAN HYDROBROMIDE] here?
A: Compound NOT metabolized

Q: With CC(=O)Nc1ccc(OC(C)=O)cc1 [DIACETAMATE] as the compound, how does the “Bacterial Biotransformation” value read?
A: Compound metabolized

Q: For CCN(CC)CCOC(=O)C1(C2CCCCC2)CCCCC1 [DICYCLOMINE], which “Bacterial Biotransformation” value is on record?
A: Compound metabolized

Test: as §1, with “on WLS-039” for “on Z-019”, “to human” for “to rat”, “number: ERS12561746” for “number: ERS12561818”
Settings: 2 µM

Q: Which “Bacterial Biotransformation” value does the source give for Br.COc1ccc2c(c1)[C@]13CCCC[C@@H]1[C@H](C2)N(C)CC3.O [DEXTROMETHORPHAN HYDROBROMIDE] here?
A: Compound NOT metabolized

Q: With CC(=O)Nc1ccc(OC(C)=O)cc1 [DIACETAMATE] as the compound, how does the “Bacterial Biotransformation” value read?
A: Compound metabolized

Q: With CCN(CC)CCOC(=O)C1(C2CCCCC2)CCCCC1 [DICYCLOMINE] as the compound, how does the “Bacterial Biotransformation” value read?
A: Compound NOT metabolized

Test: as §1, with “on Z-017” for “on Z-019”, “to mouse” for “to rat”, “number: ERS12561816” for “number: ERS12561818”
Settings: 2 µM

Q: For Br.COc1ccc2c(c1)[C@]13CCCC[C@@H]1[C@H](C2)N(C)CC3.O [DEXTROMETHORPHAN HYDROBROMIDE], which “Bacterial Biotransformation” value is on record?
A: Compound NOT metabolized

Q: For CC(=O)Nc1ccc(OC(C)=O)cc1 [DIACETAMATE], which “Bacterial Biotransformation” value is on record?
A: Compound metabolized

Q: Which “Bacterial Biotransformation” value does the source give for CCN(CC)CCOC(=O)C1(C2CCCCC2)CCCCC1 [DICYCLOMINE] here?
A: Compound NOT metabolized

Settings: human gut metagenome, 24 h, 2 µM
Remark: another data set of the same source

Q: For Br.COc1ccc2c(c1)[C@]13CCCC[C@@H]1[C@H](C2)N(C)CC3.O [DEXTROMETHORPHAN HYDROBROMIDE], which “Bacterial Biotransformation” value is on record?
A: Compound metabolized

Q: With CC(=O)Nc1ccc(OC(C)=O)cc1 [DIACETAMATE] as the compound, how does the “Bacterial Biotransformation” value read?
A: Compound metabolized

Q: With CCN(CC)CCOC(=O)C1(C2CCCCC2)CCCCC1 [DICYCLOMINE] as the compound, how does the “Bacterial Biotransformation” value read?
A: Compound metabolized

Test: as §1, with “Z-005” for “Z-019”, “to” for “to rat gut”, “ERS12561805” for “ERS12561818”
Settings: 2 µM

Q: With Br.COc1ccc2c(c1)[C@]13CCCC[C@@H]1[C@H](C2)N(C)CC3.O [DEXTROMETHORPHAN HYDROBROMIDE] as the compound, how does the “Bacterial Biotransformation” value read?
A: Compound NOT metabolized

Q: With CC(=O)Nc1ccc(OC(C)=O)cc1 [DIACETAMATE] as the compound, how does the “Bacterial Biotransformation” value read?
A: Compound metabolized

Q: With CCN(CC)CCOC(=O)C1(C2CCCCC2)CCCCC1 [DICYCLOMINE] as the compound, how does the “Bacterial Biotransformation” value read?
A: Compound NOT metabolized

Test: as §1, with “Z-021” for “Z-019”, “to” for “to rat gut”, “ERS12561820” for “ERS12561818”
Settings: 2 µM

Q: For Br.COc1ccc2c(c1)[C@]13CCCC[C@@H]1[C@H](C2)N(C)CC3.O [DEXTROMETHORPHAN HYDROBROMIDE], which “Bacterial Biotransformation” value is on record?
A: Compound metabolized

Q: With CC(=O)Nc1ccc(OC(C)=O)cc1 [DIACETAMATE] as the compound, how does the “Bacterial Biotransformation” value read?
A: Compound metabolized

Q: With CCN(CC)CCOC(=O)C1(C2CCCCC2)CCCCC1 [DICYCLOMINE] as the compound, how does the “Bacterial Biotransformation” value read?
A: Compound NOT metabolized

Test: as §1, with “Z-010” for “Z-019”, “to” for “to rat gut”, “ERS12561810” for “ERS12561818”
Settings: 2 µM

Q: With Br.COc1ccc2c(c1)[C@]13CCCC[C@@H]1[C@H](C2)N(C)CC3.O [DEXTROMETHORPHAN HYDROBROMIDE] as the compound, how does the “Bacterial Biotransformation” value read?
A: Compound metabolized

Q: For CC(=O)Nc1ccc(OC(C)=O)cc1 [DIACETAMATE], which “Bacterial Biotransformation” value is on record?
A: Compound metabolized

Q: Which “Bacterial Biotransformation” value does the source give for CCN(CC)CCOC(=O)C1(C2CCCCC2)CCCCC1 [DICYCLOMINE] here?
A: Compound metabolized

Settings: human gut metagenome, 24 h, 2 µM
Remark: another data set of the same source

Q: Which “Bacterial Biotransformation” value does the source give for Br.COc1ccc2c(c1)[C@]13CCCC[C@@H]1[C@H](C2)N(C)CC3.O [DEXTROMETHORPHAN HYDROBROMIDE] here?
A: Compound NOT metabolized

Q: For CC(=O)Nc1ccc(OC(C)=O)cc1 [DIACETAMATE], which “Bacterial Biotransformation” value is on record?
A: Compound metabolized

Q: With CCN(CC)CCOC(=O)C1(C2CCCCC2)CCCCC1 [DICYCLOMINE] as the compound, how does the “Bacterial Biotransformation” value read?
A: Compound metabolized

Settings: human gut metagenome, 24 h, 2 µM
Remark: another data set of the same source

Q: Which “Bacterial Biotransformation” value does the source give for Br.COc1ccc2c(c1)[C@]13CCCC[C@@H]1[C@H](C2)N(C)CC3.O [DEXTROMETHORPHAN HYDROBROMIDE] here?
A: Compound NOT metabolized

Q: Which “Bacterial Biotransformation” value does the source give for CC(=O)Nc1ccc(OC(C)=O)cc1 [DIACETAMATE] here?
A: Compound metabolized

Q: With CCN(CC)CCOC(=O)C1(C2CCCCC2)CCCCC1 [DICYCLOMINE] as the compound, how does the “Bacterial Biotransformation” value read?
A: Compound metabolized

Test: as §1, with “on Z-001” for “on Z-019”, “to mouse” for “to rat”, “number: ERS12561801” for “number: ERS12561818”
Settings: 2 µM

Q: For Br.COc1ccc2c(c1)[C@]13CCCC[C@@H]1[C@H](C2)N(C)CC3.O [DEXTROMETHORPHAN HYDROBROMIDE], which “Bacterial Biotransformation” value is on record?
A: Compound NOT metabolized

Q: With CC(=O)Nc1ccc(OC(C)=O)cc1 [DIACETAMATE] as the compound, how does the “Bacterial Biotransformation” value read?
A: Compound metabolized

Q: For CCN(CC)CCOC(=O)C1(C2CCCCC2)CCCCC1 [DICYCLOMINE], which “Bacterial Biotransformation” value is on record?
A: Compound NOT metabolized

Test: as §1, with “Z-014” for “Z-019”, “ERS12561814” for “ERS12561818”
Settings: 2 µM

Q: Which “Bacterial Biotransformation” value does the source give for Br.COc1ccc2c(c1)[C@]13CCCC[C@@H]1[C@H](C2)N(C)CC3.O [DEXTROMETHORPHAN HYDROBROMIDE] here?
A: Compound NOT metabolized

Q: For CC(=O)Nc1ccc(OC(C)=O)cc1 [DIACETAMATE], which “Bacterial Biotransformation” value is on record?
A: Compound metabolized

Q: With CCN(CC)CCOC(=O)C1(C2CCCCC2)CCCCC1 [DICYCLOMINE] as the compound, how does the “Bacterial Biotransformation” value read?
A: Compound NOT metabolized

Settings: human gut metagenome, 24 h, 2 µM
Remark: another data set of the same source

Q: Which “Bacterial Biotransformation” value does the source give for Br.COc1ccc2c(c1)[C@]13CCCC[C@@H]1[C@H](C2)N(C)CC3.O [DEXTROMETHORPHAN HYDROBROMIDE] here?
A: Compound metabolized

Q: With CC(=O)Nc1ccc(OC(C)=O)cc1 [DIACETAMATE] as the compound, how does the “Bacterial Biotransformation” value read?
A: Compound metabolized

Q: Which “Bacterial Biotransformation” value does the source give for CCN(CC)CCOC(=O)C1(C2CCCCC2)CCCCC1 [DICYCLOMINE] here?
A: Compound NOT metabolized

Settings: human gut metagenome, 24 h, 2 µM
Remark: another data set of the same source

Q: For Br.COc1ccc2c(c1)[C@]13CCCC[C@@H]1[C@H](C2)N(C)CC3.O [DEXTROMETHORPHAN HYDROBROMIDE], which “Bacterial Biotransformation” value is on record?
A: Compound NOT metabolized

Q: For CC(=O)Nc1ccc(OC(C)=O)cc1 [DIACETAMATE], which “Bacterial Biotransformation” value is on record?
A: Compound metabolized

Q: Which “Bacterial Biotransformation” value does the source give for CCN(CC)CCOC(=O)C1(C2CCCCC2)CCCCC1 [DICYCLOMINE] here?
A: Compound metabolized

Test: as §1, with “on WLS-082” for “on Z-019”, “to human” for “to rat”, “number: ERS12561751” for “number: ERS12561818”
Settings: 2 µM

Q: For Br.COc1ccc2c(c1)[C@]13CCCC[C@@H]1[C@H](C2)N(C)CC3.O [DEXTROMETHORPHAN HYDROBROMIDE], which “Bacterial Biotransformation” value is on record?
A: Compound NOT metabolized

Q: Which “Bacterial Biotransformation” value does the source give for CC(=O)Nc1ccc(OC(C)=O)cc1 [DIACETAMATE] here?
A: Compound metabolized

Q: For CCN(CC)CCOC(=O)C1(C2CCCCC2)CCCCC1 [DICYCLOMINE], which “Bacterial Biotransformation” value is on record?
A: Compound metabolized
